Experimental data taken from PubChem BioAssay (NCI).
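Cells were grown in 96-well plates and exposed to each compound for 48 hours at five concentrations; endpoints were interpolated linearly between bracketing concentrations, or set to the highest concentration if not reached. TGI: concentration producing complete growth inhibition.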

What was measured:
Assay in all cases: NCI anticancer screen, dose series, 48 h
[1] = tested on: NCI-H23 lung
[2] = tested on: MCF7 breast
[3] = tested on: U251 CNS
[4] = tested on: ACHN renal
[5] = tested on: 786-0 renal
[6] = tested on: LOX IMVI melanoma
[7] = tested on: UO-31 renal
[8] = tested on: NCI-H460 lung
[9] = tested on: OVCAR-5 ovarian
[10] = tested on: NCI-H522 lung
[11] = tested on: OVCAR-4 ovarian
[12] = tested on: NCI/ADR-RES ovarian
[13] = tested on: SN12C renal
[14] = tested on: COLO 205 colon
[15] = tested on: SK-MEL-28 melanoma
[16] = tested on: M14 melanoma
[17] = tested on: HT29 colon
[18] = tested on: OVCAR-8 ovarian
[19] = tested on: DU-145 prostate
[20] = tested on: A498 renal
[21] = tested on: MDA-N
[22] = tested on: HOP-62 NSCLC
[23] = tested on: HCT-15 colon
[24] = tested on: SNB-19 CNS
[25] = tested on: HCT-116 colon
[26] = tested on: SF-295 CNS
[27] = tested on: UACC-257 melanoma
[28] = tested on: K-562 leukemia
[29] = tested on: SF-539 CNS
[30] = tested on: T-47D breast
[31] = tested on: NCI-H226 lung
[32] = tested on: SK-MEL-2 melanoma
[33] = tested on: BT-549 breast
[34] = tested on: SK-OV-3 ovarian
[35] = tested on: SNB-75 CNS
[36] = tested on: MALME-3M melanoma
[37] = tested on: HCC-2998 colon
[38] = tested on: HOP-92 NSCLC
[39] = tested on: OVCAR-3 ovarian
[40] = tested on: TK-10 renal
[41] = tested on: MDA-MB-231 breast
[42] = tested on: MOLT-4 leukemia
[43] = tested on: IGROV1 ovarian
[44] = tested on: RXF 393 renal
[45] = tested on: A549 NSCLC
[46] = tested on: HS 578T breast
[47] = tested on: PC-3 prostate
[48] = tested on: RPMI-8226 leukemia
[49] = tested on: SK-MEL-5 melanoma
[50] = tested on: MDA-MB-435
[51] = tested on: KM12 colon
[52] = tested on: EKVX NSCLC
[53] = tested on: SW-620 colon
[54] = tested on: SF-268 CNS
[55] = tested on: UACC-62 melanoma
[56] = tested on: CAKI-1 renal
[57] = tested on: CCRF-CEM leukemia
[58] = tested on: SR leukemia
[59] = tested on: HL-60(TB) leukemia

Work on O=C(Nc1ncc([N+](=O)[O-])s1)c1ccccc1O yielded a TGI [1] greater than 70.5 µM, a TGI [2] greater than 100 µM and a TGI [3] greater than 100 µM. The TGI [4] was greater than 84.5 µM, the TGI [5] was greater than 100 µM and the TGI [6] was greater than 100 µM. It also gave a TGI [7] of 98.1 µM, a TGI [8] greater than 100 µM and a TGI [9] greater than 100 µM. The TGI [10] was 28.3 µM, the TGI [11] was greater than 100 µM and the TGI [12] was greater than 82.4 µM. The TGI [13] was 77.7 µM, the TGI [14] was 36.1 µM and the TGI [15] was greater than 100 µM. The TGI [16] was 79.7 µM, the TGI [17] was greater than 76.2 µM and the TGI [18] was greater than 100 µM. For the same compound, the TGI [19] was greater than 89.4 µM, the TGI [20] was greater than 100 µM and the TGI [21] was 99.4 µM. The TGI [22] was greater than 59.6 µM, the TGI [23] was greater than 86.9 µM and the TGI [24] was greater than 100 µM. For the same compound, the TGI [25] was 46.4 µM, the TGI [26] was 46.5 µM and the TGI [27] was 98.4 µM. The TGI [28] was greater than 100 µM, the TGI [29] was greater than 100 µM and the TGI [30] was 64 µM. The TGI [31] was 27.1 µM, the TGI [32] was 35.6 µM and the TGI [33] was 79.2 µM. For the same compound, the TGI [34] was greater than 100 µM, the TGI [35] was greater than 70.8 µM and the TGI [36] was 77.2 µM. For the same compound, the TGI [37] was greater than 100 µM, the TGI [38] was 7.98 µM and the TGI [39] was greater than 42.4 µM. It also gave a TGI [40] greater than 100 µM, a TGI [41] greater than 77.5 µM and a TGI [42] greater than 100 µM. For the same compound, the TGI [43] was greater than 100 µM, the TGI [44] was 23.6 µM and the TGI [45] was greater than 87.4 µM. The TGI [46] was 32.5 µM, the TGI [47] was greater than 94.7 µM and the TGI [48] was 55 µM. It also gave a TGI [49] of 37.5 µM, a TGI [50] of 66.7 µM and a TGI [51] of 68.7 µM. For the same compound, the TGI [52] was greater than 92.2 µM, the TGI [53] was greater than 100 µM and the TGI [54] was greater than 75.1 µM. For the same compound, the TGI [55] was 41.7 µM and the TGI [56] was greater than 100 µM.

CNc1ncnc2c1cnn2CCCCO was tested, and the TGI [1] was greater than 100 µM, the TGI [2] was greater than 100 µM and the TGI [3] was greater than 100 µM. For the same compound, the TGI [4] was greater than 100 µM, the TGI [5] was greater than 100 µM and the TGI [6] was greater than 100 µM. It also gave a TGI [7] greater than 100 µM, a TGI [8] greater than 100 µM and a TGI [9] greater than 100 µM. It also gave a TGI [10] greater than 100 µM, a TGI [11] greater than 100 µM and a TGI [13] greater than 100 µM. The TGI [14] was greater than 100 µM, the TGI [15] was greater than 100 µM and the TGI [16] was greater than 100 µM. It also gave a TGI [17] greater than 100 µM, a TGI [19] greater than 100 µM and a TGI [57] greater than 100 µM. It also gave a TGI [20] greater than 100 µM, a TGI [21] greater than 100 µM and a TGI [22] greater than 100 µM. The TGI [23] was greater than 100 µM, the TGI [58] was greater than 100 µM and the TGI [24] was greater than 100 µM. It also gave a TGI [25] greater than 100 µM, a TGI [26] greater than 100 µM and a TGI [27] greater than 100 µM. For the same compound, the TGI [28] was greater than 100 µM, the TGI [29] was greater than 100 µM and the TGI [59] was greater than 100 µM. For the same compound, the TGI [30] was greater than 100 µM, the TGI [31] was greater than 100 µM and the TGI [32] was greater than 100 µM. For the same compound, the TGI [33] was greater than 100 µM, the TGI [34] was greater than 100 µM and the TGI [36] was greater than 100 µM. The TGI [37] was greater than 100 µM, the TGI [38] was greater than 100 µM and the TGI [39] was greater than 100 µM. The TGI [40] was greater than 100 µM, the TGI [41] was greater than 100 µM and the TGI [42] was greater than 100 µM. The TGI [43] was greater than 100 µM, the TGI [44] was greater than 100 µM and the TGI [45] was greater than 100 µM. It also gave a TGI [46] greater than 100 µM, a TGI [47] greater than 100 µM and a TGI [48] greater than 100 µM. For the same compound, the TGI [49] was greater than 100 µM, the TGI [50] was greater than 100 µM and the TGI [52] was greater than 100 µM. For the same compound, the TGI [53] was greater than 100 µM, the TGI [54] was greater than 100 µM and the TGI [55] was greater than 100 µM. For the same compound, the TGI [56] was greater than 100 µM.

Compound CC1CC(Br)C(=O)O1 (centres undefined) has a TGI [1] greater than 100 µM, a TGI [2] greater than 100 µM and a TGI [3] greater than 100 µM. The TGI [4] was greater than 100 µM, the TGI [6] was greater than 100 µM and the TGI [7] was greater than 100 µM. It also gave a TGI [8] greater than 100 µM, a TGI [9] greater than 100 µM and a TGI [10] greater than 100 µM. The TGI [11] was greater than 100 µM, the TGI [12] was greater than 100 µM and the TGI [13] was greater than 100 µM. For the same compound, the TGI [14] was greater than 100 µM, the TGI [15] was greater than 100 µM and the TGI [16] was greater than 100 µM. For the same compound, the TGI [17] was greater than 100 µM, the TGI [18] was greater than 100 µM and the TGI [19] was greater than 100 µM. For the same compound, the TGI [57] was greater than 100 µM, the TGI [20] was greater than 100 µM and the TGI [21] was greater than 100 µM. The TGI [22] was greater than 100 µM, the TGI [23] was greater than 100 µM and the TGI [24] was greater than 100 µM. For the same compound, the TGI [25] was greater than 100 µM, the TGI [26] was greater than 100 µM and the TGI [27] was greater than 100 µM. The TGI [28] was greater than 100 µM, the TGI [29] was greater than 100 µM and the TGI [59] was greater than 100 µM. For the same compound, the TGI [30] was greater than 100 µM, the TGI [32] was greater than 100 µM and the TGI [33] was greater than 100 µM. The TGI [34] was greater than 100 µM, the TGI [35] was greater than 100 µM and the TGI [36] was greater than 100 µM. The TGI [37] was greater than 100 µM, the TGI [38] was greater than 100 µM and the TGI [39] was greater than 100 µM. It also gave a TGI [40] greater than 100 µM, a TGI [41] greater than 100 µM and a TGI [42] greater than 100 µM. The TGI [43] was greater than 100 µM, the TGI [44] was greater than 100 µM and the TGI [45] was greater than 100 µM. For the same compound, the TGI [46] was greater than 100 µM, the TGI [47] was greater than 100 µM and the TGI [48] was greater than 100 µM. The TGI [49] was greater than 100 µM, the TGI [50] was greater than 100 µM and the TGI [51] was greater than 100 µM. For the same compound, the TGI [52] was greater than 100 µM, the TGI [53] was greater than 100 µM and the TGI [54] was greater than 100 µM. For the same compound, the TGI [55] was greater than 100 µM and the TGI [56] was greater than 100 µM.

C=C(CO)[C@H]1Oc2ccc(C(C)=O)cc2[C@@H]1O was tested, and the TGI [1] was greater than 100 µM, the TGI [2] was greater than 100 µM and the TGI [3] was greater than 100 µM. The TGI [4] was greater than 100 µM, the TGI [5] was greater than 100 µM and the TGI [6] was greater than 100 µM. The TGI [7] was greater than 100 µM, the TGI [8] was greater than 100 µM and the TGI [9] was greater than 100 µM. It also gave a TGI [10] greater than 100 µM, a TGI [11] greater than 100 µM and a TGI [13] greater than 100 µM. The TGI [14] was greater than 100 µM, the TGI [15] was greater than 100 µM and the TGI [16] was greater than 100 µM. It also gave a TGI [17] greater than 100 µM, a TGI [18] greater than 100 µM and a TGI [19] greater than 100 µM. For the same compound, the TGI [57] was greater than 100 µM, the TGI [20] was greater than 100 µM and the TGI [21] was 56.5 µM. For the same compound, the TGI [22] was greater than 100 µM, the TGI [23] was greater than 100 µM and the TGI [58] was greater than 100 µM. The TGI [24] was greater than 100 µM, the TGI [25] was greater than 100 µM and the TGI [26] was greater than 100 µM. For the same compound, the TGI [27] was greater than 100 µM, the TGI [28] was greater than 100 µM and the TGI [29] was greater than 100 µM. For the same compound, the TGI [59] was greater than 100 µM, the TGI [30] was greater than 100 µM and the TGI [31] was greater than 100 µM. For the same compound, the TGI [32] was greater than 100 µM, the TGI [33] was greater than 100 µM and the TGI [34] was greater than 100 µM. For the same compound, the TGI [35] was greater than 100 µM, the TGI [36] was greater than 100 µM and the TGI [37] was greater than 100 µM. It also gave a TGI [39] greater than 100 µM, a TGI [40] greater than 100 µM and a TGI [41] greater than 100 µM. It also gave a TGI [42] greater than 100 µM, a TGI [43] greater than 100 µM and a TGI [44] greater than 100 µM. It also gave a TGI [45] greater than 100 µM, a TGI [46] greater than 100 µM and a TGI [47] greater than 100 µM. For the same compound, the TGI [48] was greater than 100 µM, the TGI [49] was greater than 100 µM and the TGI [50] was greater than 100 µM. The TGI [51] was greater than 100 µM, the TGI [52] was greater than 100 µM and the TGI [53] was greater than 100 µM. It also gave a TGI [54] greater than 100 µM, a TGI [55] greater than 100 µM and a TGI [56] greater than 100 µM.
